In patent US20220233661A1, “METHOD OF DETERMINING ELIGIBILITY OF CANCER PATIENT FOR PEPTIDE VACCINE THERAPY” (priority 2019, published 2022):

Columns and labels:
[1] = tested on: anti-peptide IgG in plasma; assay: Test Example 4: peptide-specific IgG titer pre and post vaccination, bead-based multiplexed Luminex assay; format: in vivo, human; details: for Pre-vaccination IgG Negative (number of patients) / Pre-vaccination IgG Positive (number of patients): cut off 10 FIU; for Post vaccination IgG: number of (positive) patients among vaccinated: positive IgG response; for Pre-vaccination IgG Negative patients: number of 2,588 patients below 10 FIU; for Pre-vaccination IgG Positive patients: number of 2,588 patients with ≥10 FIU; for Post vaccination IgG: (positive) patients: number of vaccinated patients with positive IgG response; for Correlation between immune responses and OS: Negative (mOS): patients with negative post-vaccination IgG response to the peptide; for Correlation between immune responses and OS: Positive (mOS): patients with positive post-vaccination IgG response to the peptide
Procedure: As described previously, IgG titer specific to the antigen peptides in plasma was measured by bead-based multiplexed Luminex assay (Luminex, Austin, Tex.) before and after vaccination, i.e., at the end of each cycle or at the end of the clinical trial (Non-Patent Literature 4). In brief, 30 mL of peripheral blood was obtained before and after vaccination. Plasma was incubated with 100 μL of peptide-coupled color-coded beads for 2 hours at 25° C. on a plate shaker. After the incubation, the resultant mixture was washed with a vacuum manifold apparatus and incubated with 100 μL of biotinylated goat anti-human IgG (gamma chain-specific; Vector Laboratories, Burlingame, Calif.) for 1 hour at 25° C. on a plate shaker. The plate was then washed, followed by addition of 100 μL of streptavidin-PE (Life Technologies) to each well, and incubation for 30 minutes at 25° C. on a plate shaker. The resultant beads were washed 4 times, followed by addition of 100 μL of Tween-PBS to each well, and detection of fluorescence intensity units (FIU) on the beads using the Luminex system. The cutoff values of anti-peptide IgG were set to 10 FIU in 100-fold diluted samples.
Pre-vaccination peptide-specific IgG titers to 31 peptides were measured using a Luminex system. As a detectable IgG level, 10 FIU was employed as the cut off level, as reported previously (Noguchi M, et al., Cancer Immunol Immunother. 2013 May; 62(5): 919-29; Sasada T, et al., Current Medicinal Chemistry. 21: 2332-2345, 2014; Kibe S, et al., Cancer Immunology Research 2014; 2(12): 1154-62).
Post-vaccination lgG titers were measured at the ends of the first cycle and the second cycle.

[2] = tested on: cancer patients; assay: Test Example 4: correlation between vaccination with individual peptides (or peptide sets) and OS, Cox proportional hazards regression; format: in vivo, human; details: for HR: Cox proportional hazards regression, OS; for Correlation between immune responses and OS: Negative (mOS) / Correlation between immune responses and OS: Positive (mOS): Table 20, <64% neutrophil and ≥26% lymphocyte; for Correlation between immune responses and OS: Negative (mOS): vaccinated patients with negative IgG response; for Correlation between immune responses and OS: Positive (mOS): vaccinated patients with positive IgG response
Procedure: The Student's t-test and the chi-square test were used to compare quantitative and categorical variables, respectively. OS was calculated as the time in months from the date of clinical trial enrollment to death or to the date of last contact. Time-to-event endpoints were analyzed using the Kaplan-Meier method, and between-group comparison for OS was conducted using the log-rank test. Clinical efficacy of the individual peptides for OS was evaluated by univariate and multivariate analyses with the Cox proportional hazards regression model, and HR and 95% CI were calculated. All reported p-values were two-sided, and p-values less than 0.05 were considered significant. JMP version 12 or SAS version 9.4 software (SAS Institute Inc., Cary, N.C.) was used to perform all analyses.
Correlation levels of the 31 peptides for OS were evaluated by the Cox proportional hazards regression model.
Similarly, in the 2,085 advanced cancer patients (stage IV+recurrence) and the 503 non-advanced cancer patients (I-III stages) correlation levels of the 31 peptides for OS were evaluated by the Cox proportional hazards regression model. […]

[3] = Table 20, patients showing both <64% neutrophil and ≥26% lymphocyte
[4] = patients showing detectable levels
[5] = patients showing positive responses
[6] = 2,085 advanced cancer patients (stage IV+recurrence)
[7] = Table 18, all 2,588 cases, vaccinated vs non-vaccinated
[8] = Table 18, all 2,588 cases, median OS of patients under PPV containing the peptide
[9] = Table 18, all 2,588 cases, median OS of patients under PPV not containing the peptide
[10] = Table 19, 2,085 advanced cancer patients (stage IV+recurrence)
[11] = Table 19, 2,085 advanced cancer patients (stage IV+recurrence), PPV containing the peptide
[12] = Table 19, 2,085 advanced cancer patients (stage IV+recurrence), PPV not containing the peptide
[13] = Table 21, patients showing both <64% neutrophil and ≥26% lymphocyte
[14] = Table 21, patients showing both <64% neutrophil and ≥26% lymphocyte, PPV containing the peptide
[15] = Table 21, patients showing both <64% neutrophil and ≥26% lymphocyte, PPV not containing the peptide

| Sequence | Post vaccination IgG Median (FIU) [1, 3] | Pre-vaccination IgG Median (FIU) [1, 3] [FIU] | Pre-vaccination IgG Negative (number of patients) [1, 3] | Pre-vaccination IgG Positive (number of patients) [1, 3] | Post vaccination IgG: number of (positive) patients among vaccinated [1, 3] | Pre-vaccination IgG Negative patients [1] | Pre-vaccination IgG Positive patients [1] | Post vaccination IgG: (positive) patients [1] | Pre-vaccination IgG Median (FIU) [1, 4] [FIU] | Post vaccination IgG Median (FIU) [1, 5] | Correlation between immune responses and OS: Negative (mOS) [1] [months] | Correlation between immune responses and OS: Positive (mOS) [1] [months] | HR [2, 7] | Vaccinate cases (mOS) [2, 8] | Non-vaccinate cases (mOS) [2, 9] | HR [2, 10] | Vaccinate cases (mOS) [2, 11] | Non-vaccinate cases (mOS) [2, 12] | Correlation between immune responses and OS: Negative (mOS) [2] [months] | Correlation between immune responses and OS: Positive (mOS) [2] [months] | further results |
| --- | --- | --- | --- | --- | --- | --- | --- | --- | --- | --- | --- | --- | --- | --- | --- | --- | --- | --- | --- | --- | --- |
| ALVEFEDVL (listed as Homo sapiens) [HNRPL-140] | 7,150 FIU | 37 | 505 | 561 | 103(68) | 1,293 | 1,295 | 200(111) | 39 | 8,576 FIU | 9.8 | 23.9 | 0.8 | 200(12.9) M | 850(11.1) M | 0.8 | 162(12.1) M | 700(10.0) M | 10.4 | 26.2 | median OS of non-vaccinated cases [2, 6]: 10 months; median OS of vaccinated cases [2, 6]: 12.1 months; HR [2, 13]: 0.8; Vaccinate cases (mOS) [2, 14]: 103(19.0) M; Non-vaccinate cases (mOS) [2, 15]: 331(15.6) M; median OS of vaccinated cases ([2]; all 2,588 cases, PPV containing the peptide): 12.9 months; median OS of non-vaccinated cases ([2]; all 2,588 cases, PPV not containing the peptide): 11.1 months |
| ASLDSDPWV (listed as Homo sapiens) [WHSC2-103] | 916 FIU | 40 | 381 | 685 | 289(105) | 915 | 1,673 | 729(222) | 43 | 827 FIU | 12.1 | 19.6 | 1.0 | 729(11.5) M | 1,465(11.6) M | 1.0 | 581(10.2) M | 1193(10.3) M | 14.4 | 27.1 | HR [2, 13]: 1.0; Vaccinate cases (mOS) [2, 14]: 289(17.6) M; Non-vaccinate cases (mOS) [2, 15]: 617(18.0) M |
| AYDFLYNYL (listed as Homo sapiens) [SART2-161] | 775 FIU | 27 | 699 | 367 | 70(26) | 1,641 | 947 | 195(61) | 29 | 312 FIU | 12.6 | 20.6 | 1.0 | 195(12.3) M | 13,552(11.9) M | 0.9 | 156(10.7) M | 1090(10.4) M | 14.4 | 26.7 | HR [2, 13]: 1.1; Vaccinate cases (mOS) [2, 14]: 70(17.4) M; Non-vaccinate cases (mOS) [2, 15]: 555(18.4) M |
| DLLSHAFFA (listed as Homo sapiens) [MAP-432] | 947 FIU | 52 | 549 | 517 | 133(45) | 1,280 | 1,308 | 375(97) | 51 | 757 FIU | 12.0 | 23.8 | 1.0 | 375(11.1) M | 1,087(11.9) M | 1.1 | 296(9.7) M | 892(10.8) M | 15.5 | 29.4 | HR [2, 13]: 1.1; Vaccinate cases (mOS) [2, 14]: 133(16.1) M; Non-vaccinate cases (mOS) [2, 15]: 460(18.5) M |
| DVWSFGILL (listed as Homo sapiens) [Lck-422] | 446 FIU | 33 | 945 | 121 | 33(10) | 2,272 | 316 | 92(20) | 33 | 436 FIU | 11.7 | 18.5 | 1.2 | 92(12.0) M | 1,849(11.4) M | 1.1 | 83(11.7) M | 1493(10.2) M | 15.6 | 18.8 | positive rate of patients showing ≥10 FIU, pre-vaccination peptide-specific IgG ([1]; 2,588 patients, pre-vaccination): 12%; positive immune responses post-vaccination (positive of vaccinated cases) ([1]; patients who completed at least the first cycle): 20 of 92; HR [2, 13]: 1.1; Vaccinate cases (mOS) [2, 14]: 33(15.6) M; Non-vaccinate cases (mOS) [2, 15]: 775(17.5) M |
| DYLRSVLEDF (listed as Homo sapiens) [Lck-488] | 11,894 FIU | 60 | 192 | 874 | 452(313) | 441 | 2,147 | 1103(635) | 60 | 11,594 FIU | 7.8 | 20.6 | 0.9 | 1,103(12.0) M | 447(12.0) M | 1.0 | 872(10.7) M | 374(10.1) M | 9.3 | 24.7 | HR [2, 13]: 1.0; Vaccinate cases (mOS) [2, 14]: 452(17.9) M; Non-vaccinate cases (mOS) [2, 15]: 173(19.7) M |
